Measured values as given in article PMC6342294, “Asymmetric diversification of mating pheromones in fission yeast” (PLoS Biology, 2019).

Experiments:
Map3 = molecular target: T1, Map3 (Schizosaccharomyces pombe, UniProt P31397); assay: Shmooing assay of synthetic M-factor peptides on P cells lacking rgs1+ (TS405); format: cell-based, S. pombe; settings: EMM2−N
T1 construct: an M-factor-sensitive strain lacking the rgs1^+ gene [53]; endogenous in cells; host or cells: S. pombe heterothallic haploid P cells lacking rgs1+ (TS405)
T1 sequence (P31397 1-365): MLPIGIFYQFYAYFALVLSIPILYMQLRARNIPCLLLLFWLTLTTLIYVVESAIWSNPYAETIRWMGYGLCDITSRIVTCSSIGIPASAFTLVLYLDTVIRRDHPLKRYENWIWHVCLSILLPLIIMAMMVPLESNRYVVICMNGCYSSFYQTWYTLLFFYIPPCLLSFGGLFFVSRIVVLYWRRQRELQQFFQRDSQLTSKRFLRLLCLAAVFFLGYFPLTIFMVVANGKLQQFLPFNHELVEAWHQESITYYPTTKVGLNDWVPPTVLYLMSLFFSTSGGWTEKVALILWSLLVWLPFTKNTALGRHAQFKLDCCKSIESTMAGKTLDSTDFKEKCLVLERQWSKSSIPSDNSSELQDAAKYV
Description: Under these conditions, approximately 40% of cells treated with Sp-M-factor peptide underwent shmoo formation, whereas no cells treated with So-M-factor peptide underwent shmooing (S5B Fig). When the concentration of So-M-factor was raised to 1,000 nM, the cells underwent shmoo elongation a little (S5B Fig).
P-factor and M-factor peptides were chemically synthesized (Eurofins) for the shmooing assay. The purity of the preparations was over 95% (HPLC). P-factor was dissolved in dimethyl sulfoxide (DMSO) at a concentration of 500 μM, and M-factor was dissolved in methanol (MeOH) at a concentration of 1 mM. The stock solutions were diluted with culture medium to the appropriate dilution ratio. For the assay, heterothallic haploid cells were grown in YE medium overnight, washed with sterilized water three times, and then resuspended in EMM2−N medium at a cell density of 4 × 10^7 cells/ml. The cells were treated with the synthetic pheromone and incubated for exactly 24 hours with gentle shaking.
To assess whether Mam2 could recognize different P-factors, a P-factor sensitive strain lacking the sxa2^+ gene (TS402) was used. The cells were incubated with synthetic P-factors at different concentrations (0, 10, 100, and 1,000 nM) for 24 hours and observed by a DIC microscope. Images were recorded, and the L and W of a cell were measured to determine the L/W ratio. […] In all cases, at least 100 cells each were measured. […] The cells were treated with synthetic M-factors at different concentrations (0, 100, and 1,000 nM) for 24 hours, and analyzed, as described above.
Supplementary file pbio.3000101.s005.tif: S5 Fig Effects of mating pheromones of S. octosporus on S. pombe cells. […] The ability of each M-factor peptide to induce shmooing was assessed by the L/W ratio of a cell, as described in S3 Fig. (C) Comparison of the amino sequences of Sp-P-factors and So-P-factors. […] The shmooing assay was evaluated as described in S3 Fig. EMM2−N, Edinburgh Minimal Medium 2 lacking nitrogen; L, length; M, Minus; P, Plus; rgs, regulator of G-protein signaling; So, S. octosporus; Sp, S. pombe; W, width. […]

S. pombe cells = assay: Quantitative assay of zygote formation (mating efficiency), S. pombe strains; format: cell-based; settings: peptide produced by engineered strain; mfm1 gene integrated in M-factorless strain FY23412; MEA, 2 days, 30 °C; mean ± SD of triplicate
Description: The resulting strains each produced one of the six P-factors. The mating efficiency of these strains was assessed by the frequency of zygotes. […] To determine whether the order of nucleotide sequences encoding mature P-factor affects zygote frequency, we also introduced a map2 gene carrying a permuted sequence of repeats (P2-P3-P2-P1) into the FY23418 strain. Similar to the strain with the native sequence, this strain also mated at high frequency (74.2% ± 1.7%) (Fig 2D); therefore, the effect of peptide-coding position appears small.
Next, we assessed whether the pheromone peptides of S. octosporus are effective on S. pombe cells. […] Next, we replaced the Sp-M-factor–encoding sequence in the mfm1^+ gene with the So-M-factor–encoding sequence (mfm1^So). […] In short, S. pombe P cells were unable to mate with M cells producing So-M-factor. […] We also replaced the So-P-factor–encoding sequence (7 repeats) in the So-map2^+ gene with the Sp-P-factor–encoding sequence (4 repeats) (So-map2^Sp) in S. octosporus cells. […]
Cells grown on YEA plates overnight were resuspended in sterilized water to a cell density of 1 × 10^8 cells/ml. […] The percentage of zygotes was calculated, as described previously. In all cases, triplicate samples (at least 300 cells each) were counted, and the mean and standard deviation (SD) were calculated.

[1] = TS405 P cells (rgs1Δ), 100 nM synthetic M-factor, one day

Substance: YQPKPPAMC^Far-OCH3 [So-M-factor, putative M-factor of S. octosporus, farnesylated methylated nonapeptide]
- Shmooing at 100 nM (in words) (Map3; [1]): no cells
- Shmoo elongation at 1,000 nM (in words) (Map3; TS405 P cells (rgs1Δ), 1,000 nM synthetic M-factor, 24 hours): a little
- Mating efficiency (zygotes) of S. pombe strain producing only this M-factor (S. pombe cells): completely sterile

Substance: YTPKVPYMC^Far-OCH3 [Sp-M-factor, S. pombe mature M-factor, farnesylated and methylated peptide of nine amino acids, reference compound]
- Proportion of cells that underwent shmoo formation, 100 nM (Map3; [1]): approximately 40%
- Mating efficiency (zygotes) of S. pombe strain producing only this M-factor (S. pombe cells): 72.1% ± 3.7%
